The experiment concerns the target Glutaminyl cyclase (QC) (Homo sapiens (Human), UniProt Q16769). Put plainly: Glutaminyl cyclase assay, determination of IC50 values and calculation of Ki values (H-Gln-AMC substrate, pGAP auxiliary enzyme; pH 8.0 or pH 6.0). It counts as biochemical. As for the experimental part:
10 mM compound stock solutions were prepared in DMSO. For IC50 determination compound stocks were serially diluted (1:3) in DMSO.
All measurements were performed with an EnSpire Perkin Elmer multimode reader using glutaminyl-7-amino-4-methylcoumarin (H-Gin-AMC) as substrate and recombinant pyroglutamyl aminopeptidase (pGAP) as auxiliary enzyme. Reactions were carried out at ambient temperature in black 96-well half area microplates. Each sample consisted of 1 μl test compound solution or solvent (DMSO) and 49 μl QC appropriately diluted in assay buffer (50 mM Tris/HCl, pH 8.0 or 50 mM MES buffer, pH=6.0). After a 10 min preincubation at ambient temperature the enzyme reaction was started by adding 50 μl of Gln-AMC-substrate/pGAP mixture in assay buffer. Final substrate concentrations were 50 and 200 μM for measurement at pH 8.0 or 6.0, respectively. Release of flourogenic AMC were recorded at excitation/emission wavelengths of 380/460 nm. Initial velocity of the enzyme reaction was calculated by linear regression of the first 10 data points using the Enspire Manager software. Final evaluation and calculation of IC50s were performed using GraphPad Prism software.
Ki-values were calculated according to the following formula: Ki=IC50/(1+[S]/Km), where: […]

Where [1] appears, read: pH 6, read-out: hQC Ki [μM] pH6.
The mark [2] stands for this setting: pH 8, read-out: hQC Ki [μM] pH8.

Structures are written as SMILES. Where two headings read alike, the source gives them in different places.

Drawing on patent publication US12384772B2, “Inhibitors” (VIVORYON THERAPEUTICS N.V., priority 2017, dated 2025), this text covers Ki for 21 molecules.

Chain of Glutaminyl cyclase (QC) (Q16769 29-361): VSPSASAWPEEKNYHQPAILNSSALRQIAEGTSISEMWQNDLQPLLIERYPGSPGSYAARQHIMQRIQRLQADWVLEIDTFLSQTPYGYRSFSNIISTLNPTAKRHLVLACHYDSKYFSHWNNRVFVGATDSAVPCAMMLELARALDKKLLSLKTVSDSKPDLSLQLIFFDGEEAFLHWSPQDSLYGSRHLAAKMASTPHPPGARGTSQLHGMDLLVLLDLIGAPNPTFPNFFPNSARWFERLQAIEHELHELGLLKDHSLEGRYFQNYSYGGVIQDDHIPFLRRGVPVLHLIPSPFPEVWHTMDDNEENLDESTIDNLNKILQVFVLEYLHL

For the molecule `Nc1nnc(C2CCN(S(=O)(=O)c3ccc(F)cc3)CC2)s1` [M2, 5-[1-(4-fluorobenzenesulfonyl)piperidin-4-yl]-1,3,4-thiadiazol-2-amine], the Ki under setting [1] is 1.18 µM and the Ki under setting [2] is 1.6 µM.

On to `Cn1cnnc1C1CCN(S(=O)(=O)c2ccc(F)cc2)CC1` [N1, 1-(4-fluorobenzenesulfonyl)-4-(4-methyl-4H-1,2,4-triazol-3-yl)piperidine], for which the inhibitory constant (Ki) is 3.05 µM under setting [1] and 3.3 µM under setting [2].

As for `COc1ccc(-c2ccccc2NCc2ccc3[nH]cnc3c2)cc1` [O3, N-(1H-1,3-benzodiazol-5-ylmethyl)-2-(4-methoxyphenyl)aniline], the inhibitory constant (Ki) by setting is: under setting [1], 1.44 µM; under setting [2], 1.65 µM.

For the molecule `COc1ccc(-c2ncccc2NCc2ccc3[nH]cnc3c2)cc1` [O4, N-(1H-1,3-benzodiazol-5-ylmethyl)-2-(4-methoxyphenyl)pyridin-3-amine], the Ki is 9.52 µM under setting [1] and 2.96 µM under setting [2].

As for `COc1ccc(-c2cccnc2NCc2ccc3[nH]cnc3c2)cc1` [O5, N-(1H-1,3-benzodiazol-5-ylmethyl)-3-(4-methoxyphenyl)pyridin-2-amine], the inhibition constant (Ki) reads like this: under setting [1], 2.74 µM; under setting [2], 2.41 µM.

Turning to `COc1ccc(-c2cnccc2NCc2ccc3[nH]cnc3c2)cc1` [O6, N-(1H-1,3-benzodiazol-5-ylmethyl)-3-(4-methoxyphenyl)pyridin-4-amine], the Ki reads like this: under setting [1], 15.1 µM; under setting [2], 10.8 µM.

For the molecule `COc1ccc(-c2ccncc2NCc2ccc3[nH]cnc3c2)cc1` [O7, N-(1H-1,3-benzodiazol-5-ylmethyl)-4-(4-methoxyphenyl)pyridin-3-amine], the Ki was 11.1 µM under setting [1] and 4.24 µM under setting [2].

For the molecule `COc1ccc(-c2cncnc2NCc2ccc3[nH]cnc3c2)cc1` [O8, N-(1H-1,3-benzodiazol-5-ylmethyl)-5-(4-methoxyphenyl)pyrimidin-4-amine], the inhibition constant (Ki) under setting [2] is 18.3 µM.

Take `COc1ccc(-c2nccnc2NCc2ccc3[nH]cnc3c2)cc1` [O9, N-(1H-1,3-benzodiazol-5-ylmethyl)-3-(4-methoxyphenyl)pyrazin-2-amine]: the Ki was 1.9 µM under setting [1] and 2.21 µM under setting [2].

Regarding `COc1ccc(-c2cnccc2NCc2ccc3[nH]cnc3c2)cc1OC` [O10, N-(1H-1,3-benzodiazol-5-ylmethyl)-3-(3,4-dimethoxyphenyl)pyridin-4-amine], the Ki is, setting by setting: under setting [1], 1.63 µM; under setting [2], 0.88 µM.

`COc1ccc(-c2nccnc2NCc2ccc3[nH]cnc3c2)cc1OC` [O12, N-(1H-1,3-benzodiazol-5-ylmethyl)-3-(3,4-dimethoxyphenyl)pyrazin-2-amine]: the inhibition constant Ki was 0.13 µM under setting [1] and 0.42 µM under setting [2].

`Fc1ccc(-c2nccnc2NCc2ccc3[nH]cnc3c2)cc1` [O15, N-(1H-1,3-benzodiazol-5-ylmethyl)-3-(4-fluorophenyl)pyrazin-2-amine]: the Ki was 10.5 µM under setting [1] and 11.7 µM under setting [2].

Take `c1ccc(Oc2ccc(-c3ccccc3NCc3ccc4[nH]cnc4c3)cc2)cc1` [O16, N-(1H-1,3-benzodiazol-5-ylmethyl)-2-(4-phenoxyphenyl)aniline]: the Ki is 4.34 µM under setting [1] and 2.11 µM under setting [2].

Regarding `c1ccc(-c2ccc(OC3CCCCC3)cc2)c(NCc2ccc3[nH]cnc3c2)c1` [O17, N-(1H-1,3-benzodiazol-5-ylmethyl)-2-[4-(cyclohexyloxy)phenyl]aniline], the Ki by setting is: under setting [1], 2.03 µM; under setting [2], 4.17 µM.

`CC(C)Oc1ccc(-c2ccccc2NCc2ccc3[nH]cnc3c2)cc1` [O19, N-(1H-1,3-benzodiazol-5-ylmethyl)-2-[4-(propan-2-yloxy)phenyl]aniline]: the Ki is, setting by setting: under setting [1], 1.53 µM; under setting [2], 3.39 µM.

As to `COc1ccc(-c2c(C)cccc2NCc2ccc3[nH]cnc3c2)cc1` [O20, N-(1H-1,3-benzodiazol-5-ylmethyl)-2-(4-methoxyphenyl)-3-methylaniline], the Ki is, setting by setting: under setting [1], 2.38 µM; under setting [2], 1.64 µM.

Turning to `COc1ccc(-c2c(C)cccc2NCc2ccc3[nH]cnc3c2)cc1OC` [O21, N-(1H-1,3-benzodiazol-5-ylmethyl)-2-(3,4-dimethoxyphenyl)-3-methylaniline], the inhibition constant Ki under setting [1] was 0.43 µM and the inhibitory constant (Ki) under setting [2] is 0.42 µM.

Take `Fc1cccc(NCc2ccc3[nH]cnc3c2)c1-c1ccc(Cl)cc1` [O22, N-(1H-1,3-benzodiazol-5-ylmethyl)-2-(4-chlorophenyl)-3-fluoroaniline]: the Ki was 4.89 µM under setting [1] and 6.83 µM under setting [2].

For the molecule `COc1ccc(-c2c(F)cccc2NCc2ccc3[nH]cnc3c2)cc1OC` [O23, N-(1H-1,3-benzodiazol-5-ylmethyl)-2-(3,4-dimethoxyphenyl)-3-fluoroaniline], the inhibition constant Ki by setting is: under setting [1], 0.055 µM; under setting [2], 0.1 µM.

With `Fc1ccc(-c2c(F)cccc2NCc2ccc3[nH]cnc3c2)cc1` [O24, N-(1H-1,3-benzodiazol-5-ylmethyl)-3-fluoro-2-(4-fluorophenyl)aniline], the Ki is, setting by setting: under setting [1], 5.81 µM; under setting [2], 9.41 µM.

With `O=S(=O)(NCc1ccc2[nH]cnc2c1)c1ccc(F)cc1` [P1, N-[(1H-1,3-benzodiazol-5-yl)methyl]-4-fluorobenzene-1-sulfonamide], the inhibition constant Ki was 38.3 µM under setting [1] and 24.7 µM under setting [2].
